According to US20080207708A1, “Oxazole and Thiazole Compounds and Their Use in the Treatment of Pge2 Mediated Disorders” (GLAXO GROUP LIMITED, priority 2005, published 2008):
Counter-ions that a name gives are not always drawn.

Assays:
[1] = molecular target: T1, EP1 receptors (Homo sapiens, UniProt P34995); assay: human EP1 calcium mobilisation assay (CHO-K1 cells, FLIPR, PGE2); type: cell-based; design: expressed in transfected cells; host or cells: CHO-K1 cells, pCIN vector; conditions: free bases or sodium salts; averages of a number of experiments; read-out: functional pKi value, human EP1 calcium mobilisation assay (converted)
T1 sequence (P34995 1-402): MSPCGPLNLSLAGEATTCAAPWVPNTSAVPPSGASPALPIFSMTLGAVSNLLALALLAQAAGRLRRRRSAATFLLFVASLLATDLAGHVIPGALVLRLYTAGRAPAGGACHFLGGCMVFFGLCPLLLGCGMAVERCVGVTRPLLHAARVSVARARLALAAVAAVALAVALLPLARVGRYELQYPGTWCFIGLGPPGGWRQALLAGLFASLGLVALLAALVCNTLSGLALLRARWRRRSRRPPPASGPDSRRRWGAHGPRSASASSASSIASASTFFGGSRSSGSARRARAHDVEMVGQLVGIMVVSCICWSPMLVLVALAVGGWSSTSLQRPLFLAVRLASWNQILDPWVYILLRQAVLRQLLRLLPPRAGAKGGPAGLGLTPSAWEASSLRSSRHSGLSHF
Experimental: Briefly, the antagonist properties of compounds are assessed by their ability to inhibit the mobilisation of intracellular calcium ([Ca^2+]i) in response to activation of EP1 or EP3 receptors by the natural agonist hormone prostaglandin E2 (PGE2). Increasing concentrations of antagonist reduce the amount of calcium that a given concentration of PGE2 can mobilise. The net effect is to displace the PGE2 concentration-effect curve to higher concentrations of PGE2. The amount of calcium produced is assessed using a calcium-sensitive fluorescent dye such as Fluo-4, AM and a suitable instrument such as a Fluorimetric Imaging Plate Reader (FLIPR). Increasing amounts of [Ca^2+]i produced by receptor activation increase the amount of fluorescence produced by the dye and give rise to an increasing signal. The signal may be detected using the FLIPR instrument and the data generated may be analysed with suitable curve-fitting software.
The human EP1 or EP3 calcium mobilisation assay (hereafter referred to as ‘the calcium assay’) utilises Chinese hamster ovary-K1 (CHO-K1) cells into which a stable (pCIN; BioTechniques 20 (1996): 102-110) vector containing either EP1 or EP3 cDNA has previously been transfected. Cells are cultured in suitable flasks containing culture medium such as DMEM:F-12 supplemented with 10% v/v foetal calf serum, 2 mM L-glutamine, 0.25 mg/ml geneticin, 100 μM flurbiprofen and 10 µg/ml puromycin. For assay, cells are harvested using a proprietary reagent that dislodges cells such as Versene. Cells are re-suspended in a suitable quantity of fresh culture media for introduction into a 384-well plate. Following incubation for 24 hours at 37° C. the culture media is replaced with a medium containing Fluo-4 and the detergent pluronic acid, and a further incubation takes place. Concentrations of compounds are then added to the plate in order to construct concentration-effect curves. This may be performed on the FLIPR in order to assess the agonist properties of the compounds. Concentrations of PGE2 are then added to the plate in order to assess the antagonist properties of the compounds. The data so generated may be analysed by means of a computerised curve-fitting routine. The concentration of compound that elicits a half-maximal inhibition of the calcium mobilisation induced by PGE2 (pIC50) may then be estimated.

[2] = molecular target: T1, EP1 receptors; assay: Binding assay for the human prostanoid EP1 receptor (competition with [3H]-PGE2); design: expressed in transfected cells; host or cells: CHO-K1 cells, membrane fraction; conditions: [3H]-PGE2 competition; averages of a number of experiments; read-out: pIC50 value, binding assay for the human prostanoid EP1 receptor (converted)
In short: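 Competition against 3 nM (final) tritiated PGE2 at 30° C for 30 min, pH 6 MES assay buffer, using membranes of stably transfected CHO-K1 cells. Filter-retained counts by scintillation; nonlinear curve fitting gives concentration inhibiting 50% of specific binding.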

Structure (SMILES): O=C(Nc1ccc(CN2CCCCC2)cc1)c1csc(Cc2cc(Cl)ccc2OCc2ccccc2)n1 [Example 121, 2-({5-Chloro-2-[(phenylmethyl)oxy]phenyl}-methyl)-N-[4-(1-piperidinylmethyl)phenyl]-1,3-thiazole-4-carboxamidehydrochloride]
- Ki [1]: > 1 µM
- IC50 [2]: ≤ 1 µM

Structure (SMILES): CC(C)COc1ccc(Cl)cc1Cc1nc(-c2nc3ccc(CN(C)C)cc3[nH]2)cs1 [Example 124, ({2-[2-({5-Chloro-2-[(2-methylpropyl)oxy]phenyl}-methyl)-1,3-thiazol-4-yl]-1H-benzimidazol-5-yl}methyl)dimethylaminehydrochloride]
- Ki [1]: < 1 µM
- IC50 [2]: ≤ 0.0316 µM

Structure (SMILES): CC(C)COc1ccc(Cl)cc1Cc1nc(-c2nc3ccc(CN4CCOCC4)cc3[nH]2)cs1 [Example 125, 2-[2-({5-Chloro-2-[(2-methylpropyl)oxy]phenyl}-methyl)-1,3-thiazol-4-yl]-5-(4-morpholinylmethyl)-1H-benzimidazolehydrochloride]
- Ki [1]: < 1 µM
- IC50 [2]: ≤ 0.0316 µM

Structure (SMILES): CNCc1ccc2nc(-c3csc(Cc4cc(Cl)ccc4OCC(C)C)n3)[nH]c2c1 [Example 126, ({2-[2-({5-Chloro-2-[(2-methylpropyl)oxy]phenyl}-methyl)-1,3-thiazol-4-yl]-1H-benzimidazol-5-yl}methyl)methylaminehydrochloride]
- Ki [1]: < 1 µM
- IC50 [2]: ≤ 0.0316 µM

Structure (SMILES): CC(=O)Nc1csc(Cc2cc(Cl)ccc2OCc2ccccc2)n1 [Example 127, N-[2-({5-Chloro-2-[(phenylmethyl)oxy]phenyl}methyl)-1,3-thiazol-4-yl]acetamide]
- Ki [1]: > 1 µM
- IC50 [2]: ≤ 1 µM

Structure (SMILES): CCC(=O)Nc1csc(Cc2cc(Cl)ccc2OCc2ccccc2)n1 [Example 128]
- Ki [1]: > 1 µM
- IC50 [2]: ≤ 1 µM

Structure (SMILES): CC(C)C(=O)Nc1csc(Cc2cc(Cl)ccc2OCc2ccccc2)n1 [Example 129, N-[2-({5-Chloro-2-[(phenylmethyl)oxy]phenyl}methyl)-1,3-thiazol-4-yl]-2-methylpropanamide]
- Ki [1]: < 1 µM
- IC50 [2]: ≤ 1 µM

Structure (SMILES): O=C(Cc1ccccc1)Nc1csc(Cc2cc(Cl)ccc2OCc2ccccc2)n1 [Example 130, N-[2-({5-Chloro-2-[(phenylmethyl)oxy]phenyl}methyl)-1,3-thiazol-4-yl]-2-phenylacetamide]
- Ki [1]: < 1 µM
- IC50 [2]: ≤ 1 µM

Structure (SMILES): Clc1ccc(OCc2ccccc2)c(Cc2nc(-c3nc4ccccc4[nH]3)cs2)c1 [Example 131, 2-[2-({5-Chloro-2-[(phenylmethyl)oxy]phenyl}methyl)-1,3-thiazol-4-yl]-1H-benzimidazole]
- Ki [1]: < 1 µM
- IC50 [2]: ≤ 1 µM

Structure (SMILES): CC(C)COc1ccc(Cl)cc1Cc1nc(-c2nc3ncccc3[nH]2)cs1 [Example 132, 2-[2-({5-Chloro-2-[(2-methyl-propyl)oxy]-phenyl}methyl)-1,3-thiazol-4-yl]-1H-imidazo[4,5-b]pyridine]
- Ki [1]: < 1 µM
- IC50 [2]: ≤ 0.0316 µM

Structure (SMILES): Clc1ccc(OCc2ccccc2)c(Cc2nc(-c3nc4ncccc4[nH]3)cs2)c1 [Example 133, 2-[2-({5-Chloro-2-[(phenylmethyl)oxy]phenyl}methyl)-1,3-thiazol-4-yl]-1H-imidazo[4,5-b]pyridine]
- Ki [1]: < 1 µM
- IC50 [2]: ≤ 1 µM

Structure (SMILES): Clc1ccc(OCc2ccccc2)c(Cc2nc(-c3nc4ncc(Br)cc4[nH]3)cs2)c1 [Example 134, 6-Bromo-2-[2-({5-chloro-2-[(phenylmethyl)oxy]phenyl}methyl)-1,3-thiazol-4-yl]-1H-imidazo[4,5-b]pyridine]
- Ki [1]: < 1 µM
- IC50 [2]: ≤ 1 µM

Structure (SMILES): CC(C)COc1ccc(Cl)cc1Cc1nc(-c2nc3cnccc3[nH]2)cs1 [Example 135, 2-[2-({5-Chloro-2-[(2-methyl-propyl)oxy]-phenyl}methyl)-1,3-thiazol-4-yl]-1H-imidazo[4,5-c]pyridinehydrochloride]
- Ki [1]: ≤ 0.0316 µM
- IC50 [2]: ≤ 0.0316 µM

Structure (SMILES): CC(C)COc1ccc(Cl)cc1Cc1nc(-c2nc3nccnc3[nH]2)cs1 [Example 136, 2-[2-({5-Chloro-2-[(2-methyl-propyl)oxy]-phenyl}methyl)-1,3-thiazol-4-yl]-1H-imidazo[4,5-b]pyrazinehydrochloride]
- Ki [1]: ≤ 0.0316 µM
- IC50 [2]: ≤ 0.0316 µM

Structure (SMILES): Clc1ccc(OCc2ccccc2)c(Cc2nc(-c3nc4ccc(N5CCCC5)nc4[nH]3)cs2)c1 [Example 137, 2-[2-({5-Chloro-2-[(phenylmethyl)oxy]phenyl}methyl)-1,3-thiazol-4-yl]-5-(1-pyrrolidinyl)-1H-imidazo[4,5-b]pyridinehydrochloride]
- Ki [1]: < 1 µM
- IC50 [2]: ≤ 1 µM

Structure (SMILES): O=C(O)c1cccc2nc(-c3csc(Cc4cc(Cl)ccc4OCc4ccccc4)n3)[nH]c12 [Example 139, 2-[2-({5-Chloro-2-[(phenylmethyl)oxy]phenyl}methyl)-1,3-thiazol-4-yl]-1H-benzimidazole-4-carboxylic acid]
- Ki [1]: < 1 µM
- IC50 [2]: ≤ 1 µM

Structure (SMILES): CC(C)COc1ccc(Cl)cc1Cc1nc(-c2nc3ccc(Cl)nc3[nH]2)cs1 [Example 140, 5-Chloro-2-[2-({5-chloro-2-[(2-methylpropyl)oxy]phenyl}methyl)-1,3-thiazol-4-yl]-1H-imidazo[4,5-b]pyridinehydrochloride]
- Ki [1]: < 1 µM
- IC50 [2]: ≤ 0.0316 µM

Structure (SMILES): CC(C)COc1ccc(Cl)cc1C(F)(F)c1nc(-c2nc3ccccc3[nH]2)cs1 [Example 141, 2-{2-[{5-chloro-2-[(2-methylpropyl)oxy]phenyl}(difluoro)methyl]-1,3-thiazol-4-yl}-1H-benzimidazole hydrochloride]
- Ki [1]: > 1 µM
- IC50 [2]: ≤ 1 µM

Structure (SMILES): CC(C)COc1ccc(Cl)cc1Cc1nc(-c2nc3ccc(N4CCN(C)CC4)cc3[nH]2)cs1 [Example 142, 2-[2-({5-Chloro-2-[(2-methylpropyl)oxy]phenyl}methyl)-1,3-thiazol-4-yl]-5-(4-methyl-1-piperazinyl)-1H-benzimidazole hydrochloride]
- Ki [1]: < 1 µM
- IC50 [2]: ≤ 0.0316 µM

Structure (SMILES): OCc1cccc2nc(-c3csc(Cc4cc(Cl)ccc4OCc4ccccc4)n3)[nH]c12 [Example 143, {2-[2-({5-Chloro-2-[(phenylmethyl)oxy]phenyl}methyl)-1,3-thiazol-4-yl]-1H-benzimidazol-4-yl}methanol hydrochloride]
- Ki [1]: > 1 µM
- IC50 [2]: ≤ 1 µM

Structure (SMILES): CC(C)COc1ccc(Cl)cc1Cc1nc(-c2nc3ccc(N4CCOCC4)nc3[nH]2)cs1 [Example 144, 2-[2-({5-Chloro-2-[(2-methylpropyl)oxy]phenyl}methyl)-1,3-thiazol-4-yl]-5-(4-morpholinyl)-1H-imidazo[4,5-b]pyridine]
- Ki [1]: ≤ 0.0316 µM
- IC50 [2]: ≤ 1 µM

Structure (SMILES): CC(C)COc1ccc(Cl)cc1Cc1nc(-c2nc3ccc(N4CCCC4)nc3[nH]2)cs1 [Example 145, 2-[2-({5-Chloro-2-[(2-methylpropyl)oxy]phenyl}methyl)-1,3-thiazol-4-yl]-5-(1-pyrrolidinyl)-1H-imidazo[4,5-b]pyridinehydrochloride]
- Ki [1]: < 1 µM
- IC50 [2]: ≤ 1 µM

Structure (SMILES): CC(C)COc1ccc(Cl)cc1Cc1nc(-c2nc3ccc(N4CCN(C)CC4)nc3[nH]2)cs1 [Example 146, 2-[2-({5-chloro-2-[(2-methylpropyl)oxy]phenyl}methyl)-1,3-thiazol-4-yl]-5-(4-methyl-1-piperazinyl)-1H-imidazo[4,5-b]pyridinehydrochloride]
- Ki [1]: < 1 µM
- IC50 [2]: ≤ 0.0316 µM

Structure (SMILES): CC(C)COc1ccc(Cl)cc1Cc1nc(-c2nc3ccc(N4CCCCC4)nc3[nH]2)cs1 [Example 147]
- Ki [1]: < 1 µM
- IC50 [2]: ≤ 1 µM
